# Assay results taken from patent publication US9994546B2, “Cyclopropylamines as LSD1 inhibitors” (Incyte Corporation, priority 2014, dated 2018).
# Molecular target: LSD-1 enzyme (Homo sapiens (Human), UniProt O60341)
# Experiment: LANCE LSD1/KDM1A demethylase assay (LSD1 histone demethylase biochemical assay)
# Details: 1 nM LSD-1 enzyme, 1 hour preincubation at 25° C., 0.4 μM biotin-labeled Histone H3 peptide substrate
# Protocol: LANCE LSD1/KDM1A demethylase assay—10 μL of 1 nM LSD-1 enzyme (ENZO BML-SE544-0050) in the assay buffer (50 mM Tris, pH 7.5, 0.01% Tween-20, 25 mM NaCl, 5 mM DTT) were preincubated for 1 hour at 25° C. with 0.8 μL compound/DMSO dotted in black 384 well polystyrene plates. […] After stopping the reactions plates were incubated for 30 minutes and read on a PHERAstar FS plate reader (BMG Labtech).
row,SMILES,IC50
1,"N#CCC1(N2CCC(N[C@@H]3C[C@H]3c3ccccc3)CC2)CN(C(=O)[C@H]2CCCO2)C1 [Example 117, {3-(4-{[(1R,2S)-2-phenylcyclopropyl]amino}piperidin-1-yl)-1-[(2R)-tetrahydrofuran-2-ylcarbonyl]azetidin-3-yl}acetonitrile]",≤ 100 nM
2,"CCS(=O)(=O)N1CC(CCO)(N2CCC(N[C@@H]3C[C@H]3c3ccccc3)CC2)C1 [Example 92, 2-[1-(ethylsulfonyl)-3-(4-{[(1R,2S)-2-phenylcyclopropyl]amino}piperidin-1-yl)azetidin-3-yl]ethanol]",≤ 100 nM
3,"CN(C)C(=O)CC1(N2CCC(N[C@@H]3C[C@H]3c3ccccc3)CC2)CN(S(C)(=O)=O)C1 [Example 90, N,N-dimethyl-2-(1-(methylsulfonyl)-3-(4-(((1R,2S)-2-phenylcyclopropyl)amino)piperidin-1-yl)azetidin-3-yl)acetamide]",≤ 100 nM
4,"N#CCC1(N2CCC(CN[C@@H]3C[C@H]3c3ccccc3)CC2)CN(C(=O)c2cccc(F)c2)C1 (relative stereo) [Example 47, [1-(3-Fluorobenzoyl)-3-(4-{[(trans-2-phenylcyclopropyl)amino]methyl}piperidin-1-yl)azetidin-3-yl]acetonitrile]",≤ 100 nM
5,"CN(C)S(=O)(=O)N1CC(CC#N)(N2CCC(N[C@@H]3C[C@H]3c3ccccc3)CC2)C1 [Example 63, 3-(cyanomethyl)-N,N-dimethyl-3-(4-{[(1R,2S)-2-phenylcyclopropyl]amino}piperidin-1-yl)azetidine-1-sulfonamide]",≤ 100 nM
6,"CCOC(=O)N1CCC(CC#N)(N2CC(CN[C@@H]3C[C@H]3c3ccccc3)C2)CC1 (relative stereo) [Example 22, Ethyl 4-(cyanomethyl)-4-(3-{[(trans-2-phenylcyclopropyl)amino]methyl}azetidin-1-yl)piperidine-1-carboxylate]",≤ 100 nM
7,"N#CCC1(N2CCC(N[C@@H]3C[C@H]3c3ccccc3)CC2)CN(C(=O)Cc2ccccn2)C1 [Example 118, [3-(4-{[(1R,2S)-2-phenylcyclopropyl]amino}piperidin-1-yl)-1-(pyridin-2-ylacetyl)azetidin-3-yl]acetonitrile]",≤ 100 nM
8,"N#CCC1(N2CCC(N[C@@H]3C[C@H]3c3ccccc3)CC2)CN(C(=O)c2cn[nH]c2)C1 [Example 112, [3-(4-{[(1R,2S)-2-phenylcyclopropyl]amino}piperidin-1-yl)-1-(1H-pyrazol-4-ylcarbonyl)azetidin-3-yl]acetonitrile]",≤ 100 nM
9,"N#CCC1(N2CCC(N[C@@H]3C[C@H]3c3ccccc3)CC2)CN(C(=O)c2cnccn2)C1 [Example 111, [3-(4-{[(1R,2S)-2-phenylcyclopropyl]amino}piperidin-1-yl)-1-(pyrazin-2-ylcarbonyl)azetidin-3-yl]acetonitrile]",≤ 100 nM
10,"N#CCC1(N2CCC(N[C@@H]3C[C@H]3c3ccccc3)CC2)CN(C(=O)C2(O)CC2)C1 [Example 84, [1-[(1-hydroxycyclopropyl)carbonyl]-3-(4-{[(1R,2S)-2-phenylcyclopropyl]amino}piperidin-1-yl)azetidin-3-yl]acetonitrile]",≤ 100 nM
11,"N#CCC1(N2CCC(N[C@@H]3C[C@H]3c3ccccc3)CC2)CNC1 [Example 60, [3-(4-{[(1R,2S)-2-phenylcyclopropyl]amino}piperidin-1-yl)azetidin-3-yl]acetonitrile]",≤ 100 nM
12,"Cn1cc(N2CC(CC#N)(N3CCC(N[C@@H]4C[C@H]4c4ccccc4)CC3)C2)cn1 [Example 98, [1-(1-methyl-1H-pyrazol-4-yl)-3-(4-{[(1R,2S)-2-phenylcyclopropyl]amino}piperidin-1-yl)azetidin-3-yl]acetonitrile]",≤ 100 nM
13,"C[C@H](NC(=O)c1cc(F)c(N2CC(CC#N)(N3CC(CNC4CC4c4ccccc4)C3)C2)cc1F)C(F)(F)F (stereo partly drawn) [Example 27, 4-(3′-(Cyanomethyl)-3-{[(trans-2-phenylcyclopropyl)amino]methyl}-1,3′-biazetidin-1′-yl)-2,5-difluoro-N-[(1S)-2,2,2-trifluoro-1-methylethyl]benzamide]",≤ 100 nM
14,"N#CCC1(N2CCC(N[C@@H]3C[C@H]3c3ccccc3)CC2)CN(C(=O)c2ccn[nH]2)C1 [Example 113, [3-(4-{[(1R,2S)-2-phenylcyclopropyl]amino}piperidin-1-yl)-1-(1H-pyrazol-5-ylcarbonyl)azetidin-3-yl]acetonitrile]",≤ 100 nM
15,"CN1CC(CC#N)(N2CCC(N[C@@H]3C[C@H]3c3ccccc3)CC2)C1 [Example 59, [1-methyl-3-(4-{[(1R,2S)-2-phenylcyclopropyl]amino}piperidin-1-yl)azetidin-3-yl]acetonitrile]",≤ 100 nM
16,"N#CCC1(N2CCC(N[C@@H]3C[C@H]3c3ccccc3)CC2)CN(CC(N)=O)C1 [Example 79, 2-[3-(cyanomethyl)-3-(4-{[(1R,2S)-2-phenylcyclopropyl]amino}piperidin-1-yl)azetidin-1-yl]acetamide]",≤ 100 nM

row,SMILES,IC50
1,"N#CCC1(N2CCC(N[C@@H]3C[C@H]3c3ccccc3)CC2)CN(C2CCOC2)C1 (stereo partly drawn) [Example 76, [3-(4-{[(1R,2S)-2-phenylcyclopropyl]amino}piperidin-1-yl)-1-(tetrahydrofuran-3-yl)azetidin-3-yl]acetonitrile]",≤ 100 nM
2,"N#CCC1(N2CC(CN[C@@H]3C[C@H]3c3ccccc3)C2)CCN(C(=O)c2ccc(F)cc2)CC1 (relative stereo) [Example 19, [1-(4-Fluorobenzoyl)-4-(3-{[(trans-2-phenylcyclopropyl)amino]methyl}azetidin-1-yl)piperidin-4-yl]acetonitrile]",≤ 100 nM
3,"CCS(=O)(=O)N1CC(CC#N)(N2CC(CN[C@@H]3C[C@H]3c3ccccc3)C2)C1 (relative stereo) [Example 15, (1′-(Ethylsulfonyl)-3-{[(trans-2-phenylcyclopropyl)amino]methyl}-1,3′-biazetidin-3′-yl)acetonitrile]",≤ 100 nM
4,"CNC(=O)CC1(N2CCC(N[C@@H]3C[C@H]3c3ccccc3)CC2)CN(C2CCOCC2)C1 [Example 122, N-methyl-2-[3-(4-{[(1R,2S)-2-phenylcyclopropyl]amino}piperidin-1-yl)-1-(tetrahydro-2H-pyran-4-yl)azetidin-3-yl]acetamide]",≤ 100 nM
5,"CN(C)C(=O)CC1(N2CCC(C)(CN[C@@H]3C[C@H]3c3ccccc3)CC2)CCC1 [Example 56, N,N-dimethyl-2-{1-[4-methyl-4-({[(1R,2S)-2-phenylcyclopropyl]amino}methyl)piperidin-1-yl]cyclobutyl}acetamide]",≤ 100 nM
6,"N#CCC1(N2CCC(N[C@@H]3C[C@H]3c3ccccc3)CC2)CN(C(=O)C2CCCO2)C1 (stereo partly drawn) [Example 107, 2-(3-(4-(((1R,2S)-2-phenylcyclopropyl)amino)piperidin-1-yl)-1-(tetrahydrofuran-2-carbonyl)azetidin-3-yl)acetonitrile]",≤ 100 nM
7,"CCS(=O)(=O)N1CC(CC(=O)N(C)C)(N2CCC(N[C@@H]3C[C@H]3c3ccccc3)CC2)C1 [Example 70, 2-[1-(ethylsulfonyl)-3-(4-{[(1R,2S)-2-phenylcyclopropyl]amino}piperidin-1-yl)azetidin-3-yl]-N,N-dimethylacetamide]",≤ 100 nM
8,"CS(=O)(=O)N1CC(CC#N)(N2CCC(N[C@@H]3C[C@H]3c3ccc(F)cc3)CC2)C1 [Example 101, [3-(4-{[(1R,2S)-2-(4-fluorophenyl)cyclopropyl]amino}piperidin-1-yl)-1-(methylsulfonyl)azetidin-3-yl]acetonitrile]",≤ 100 nM
9,"CN(C)C(=O)CC1(N2CCC(N[C@@H]3C[C@H]3c3ccccc3)CC2)CCC1 [Example 68, N,N-dimethyl-2-[1-(4-{[(1R,2S)-2-phenylcyclopropyl]amino}piperidin-1-yl)cyclobutyl]acetamide]",≤ 100 nM
10,"O=C(O)CC1(N2CCC(CN[C@@H]3C[C@H]3c3ccccc3)(Cc3ccc(F)cc3)CC2)CCC1 [Example 53, {1-[4-(4-fluorobenzyl)-4-({[(1R,2S)-2-phenylcyclopropyl]amino}methyl)piperidin-1-yl]cyclobutyl}acetic acid]",≤ 100 nM
11,"N#CCC1(N2CCC(N[C@@H]3C[C@H]3c3ccccc3)CC2)CN(CCC(=O)O)C1 (relative stereo) [Example 5, 3-(3-(Cyanomethyl)-3-{4-[(trans-2-phenylcyclopropyl)amino]piperidin-1-yl}azetidin-1-yl)propanoic acid]",≤ 100 nM
12,"CCS(=O)(=O)N1CC(CC(=O)NC)(N2CCC(N[C@@H]3C[C@H]3c3ccccc3)CC2)C1 [Example 71, 2-[1-(ethylsulfonyl)-3-(4-{[(1R,2S)-2-phenylcyclopropyl]amino}piperidin-1-yl)azetidin-3-yl]-N-methylacetamide]",≤ 100 nM
13,"N#CCC1(N2CCC(N[C@@H]3C[C@H]3c3ccc(F)cc3)CC2)CN(S(N)(=O)=O)C1 [Example 102, 3-(cyanomethyl)-3-(4-{[(1R,2S)-2-(4-fluorophenyl)cyclopropyl]amino}piperidin-1-yl)azetidine-1-sulfonamide]",≤ 100 nM
14,"N#CC1(c2ccccc2)CCC(N2CC(CNC3CC3c3ccccc3)C2)CC1 (stereo not drawn) [Example 30, 1-Phenyl-4-(3-{[(trans-2-phenylcyclopropyl)amino]methyl}azetidin-1-yl)cyclohexanecarbonitrile]",≤ 100 nM
15,"N#CCC1(N2CCC(N[C@@H]3C[C@H]3c3ccccc3)CC2)CN(C(=O)[C@H]2CC[C@H](O)CC2)C1 [Example 82, [1-[(trans-4-hydroxycyclohexyl)carbonyl]-3-(4-{[(1R,2S)-2-phenylcyclopropyl]amino}piperidin-1-yl)azetidin-3-yl]acetonitrile]",≤ 100 nM
16,"N#CCC1(N2CCC(N[C@@H]3C[C@H]3c3ccccc3)CC2)CN(C(=O)C2(O)CCCC2)C1 [Example 85, [1-[(1-hydroxycyclopentyl)carbonyl]-3-(4-{[(1R,2S)-2-phenylcyclopropyl]amino}piperidin-1-yl)azetidin-3-yl]acetonitrile]",≤ 100 nM
